Columns and labels:
[1] = tested on: Erysiphe graminis f. sp. tritici; assay: Test J: wheat powdery mildew on wheat seedlings, sprayed the day before inoculation, visual disease rating; format: in vivo; settings: 100 = 100% disease control; for pest or weed control at 200 ppm / Test J disease control rating: 0 = no control relative to controls, 200 ppm
How it was run: (§1)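 Plants received a run-off spray at 200 ppm (equivalent to 500 g/ha) or, for starred values, 40 ppm. Formulation used acetone at 3% of volume in a 50/50 acetone/water mix carrying 250 ppm Trem® 014.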

[2] = tested on: Septoria tritici; assay: Test G: wheat leaf blotch on wheat seedlings, sprayed the day before inoculation, visual disease rating; format: in vivo; settings: 100 = 100% disease control; for pest or weed control at 200 ppm / Test G disease control rating: 0 = no control relative to controls, 200 ppm
How it was run: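 Disease was rated visually after Septoria tritici inoculation, 48 h saturated incubation at 24°C and 19 days in a 20°C growth chamber. Inoculation followed one day after run-off spraying of seedlings with compound at 200 ppm (≈500 g/ha) or, where marked, 40 ppm, formulated in acetone/water with surfactant.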

[3] = tested on: Puccinia recondita f. sp. tritici; assay: Test I: wheat leaf rust on wheat seedlings, sprayed the day before inoculation, visual disease rating; format: in vivo; settings: 100 = 100% disease control; for pest or weed control at 200 ppm / Test I disease control rating: 0 = no control relative to controls, 200 ppm
How it was run: as §1

[4] = tested on: Alternaria solani; assay: Test D: tomato early blight, sprayed the day before inoculation, visual disease rating; format: in vivo; settings: 100 = 100% disease control; for pest or weed control at 200 ppm / Test D disease control rating: 0 = no control relative to controls, 200 ppm
How it was run: as §1

[5] = tested on: Botrytis cinerea; assay: Test C: tomato Botrytis on tomato seedlings, sprayed the day before inoculation, visual disease rating; format: in vivo; settings: 100 = 100% disease control; for pest or weed control at 200 ppm / Test C disease control rating: 0 = no control relative to controls, 200 ppm
How it was run: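 Rate: 200 ppm sprayed to run-off, corresponding to 500 g/ha; flagged values used 40 ppm. Vehicle was aqueous acetone (1:1) plus 250 ppm surfactant, compounds predissolved in acetone at 3% of volume. Plants were tomato seedlings.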

[6] = tested on: Septoria nodorum; assay: Test F: wheat glume blotch on wheat seedlings, sprayed the day before inoculation, visual disease rating; format: in vivo; settings: 100 = 100% disease control; for pest or weed control at 200 ppm / Test F disease control rating: 0 = no control relative to controls, 200 ppm
How it was run: as §1

[7] = tested on: Rhizoctonia solani; assay: Test B: turf brown patch on bentgrass seedlings, sprayed the day before inoculation, visual disease rating; format: in vivo; settings: 200 ppm; 100 = 100% disease control, 0 = no control relative to controls
Source text: General protocol for preparing test suspensions for Tests A-J: The test compounds were first dissolved in acetone in an amount equal to 3% of the final volume and then suspended at the desired concentration (in ppm) in acetone and purified water (50/50 mix) containing 250 ppm of the surfactant Trem® 014 (polyhydric alcohol esters). The resulting test suspensions were then used in tests A-J. Spraying a 200 ppm test suspension to the point of run-off on the test plants was the equivalent of a rate of 500 g/ha. […] The test suspension was sprayed to the point of run-off on bentgrass (Agrostis sp.) seedlings. […] A dash (-) indicates no test results. All results are for 200 ppm except where followed by “*”, which indicates 40 ppm.

[8] = tested on: Phytophthora infestans; format: in vivo; settings: 200 ppm; 100 = 100% disease control, 0 = no control relative to controls
[9] = tested on: Plasmopara viticola; assay: Test A: grape downy mildew, test suspension sprayed after inoculation of grape seedlings, visual disease rating; format: in vivo; settings: 200 ppm; 100 = 100% disease control, 0 = no control relative to controls
Source text: General protocol for preparing test suspensions for Tests A-J: The test compounds were first dissolved in acetone in an amount equal to 3% of the final volume and then suspended at the desired concentration (in ppm) in acetone and purified water (50/50 mix) containing 250 ppm of the surfactant Trem® 014 (polyhydric alcohol esters). The resulting test suspensions were then used in tests A-J. Spraying a 200 ppm test suspension to the point of run-off on the test plants was the equivalent of a rate of 500 g/ha. […] Grape seedlings were inoculated with a spore suspension of Plasmopara viticola (the causal agent of grape downy mildew) and incubated in a saturated atmosphere at 20° C. for 24 h. After a short drying period, the grape seedlings were sprayed with the test suspension to the point of run-off and then moved to a growth chamber at 20° C. for 5 days, after which time the grape seedlings were placed back into a saturated atmosphere at 20° C. for 24 h. Upon removal, visual disease ratings were made. […] A dash (-) indicates no test results.

[10] = Parastagonospora nodorum, 264 h

Compound	melting point	pest or weed control at 200 ppm ([1]; Blumeria graminis, 168 h)	pest or weed control at 200 ppm ([2]; Zymoseptoria tritici, 504 h)	Test B disease control rating [7]	pest or weed control at 200 ppm ([3]; Puccinia recondita, 168 h)	pest or weed control at 200 ppm ([4]; Alternaria solani, 168 h)	pest or weed control at 200 ppm ([5]; Botrytis cinerea, 120 h)	pest or weed control at 200 ppm [6, 10]	Test E disease control rating [8]	Test A disease control rating [9]	Test J disease control rating [1]	Test G disease control rating [2]	Test I disease control rating [3]	Test D disease control rating [4]	Test C disease control rating [5]	Test F disease control rating [6]	further results
Fc1cc(F)c(-c2c(Cl)ncn2-c2ccc(Cl)cc2)c(F)c1 [Compound 1, 4-chloro-1-(4-chlorophenyl)-5-(2,4,6-trifluorophenyl)-1H-imidazole]	102 to 104 °C																pest or weed control at 40 ppm ([1]; Blumeria graminis, 168 h, 40 ppm (marked *)): 99%; pest or weed control at 40 ppm ([2]; Zymoseptoria tritici, 504 h, 40 ppm (marked *)): 93%; pest or weed control at 40 ppm ([3]; Puccinia recondita, 168 h, 40 ppm (marked *)): 16%; pest or weed control at 40 ppm ([4]; Alternaria solani, 168 h, 40 ppm (marked *)): 94%; pest or weed control at 40 ppm ([5]; Botrytis cinerea, 120 h, 40 ppm (marked *)): 99%; pest or weed control at 40 ppm ([6]; Parastagonospora nodorum, 264 h, 40 ppm (marked *)): 0%
Cc1nc(Cl)c(-c2c(F)cccc2F)n1-c1ccc(Cl)cc1 [Compound 2, 4-chloro-1-(4-chlorophenyl)-5-(2,6-difluorophenyl)-2-methyl-1H-imidazole]	143 to 145 °C	100%	100%	65%	100%	100%	99%	100%									
Fc1cccc(F)c1-c1c(Cl)nc(Cl)n1-c1ccc(Cl)cc1 [Compound 3, 2,4-dichloro-1-(4-chlorophenyl)-5-(2,6-difluorophenyl)-1H-imidazole]	123 to 125 °C	100%	100%	99%	99%	100%	99%	99%									
Fc1cc(F)c(-c2c(Cl)nc(Cl)n2-c2ccc(Cl)cc2)c(F)c1 [Compound 6, 2,4-dichloro-1-(4-chlorophenyl)-5-(2,4,6-trifluorophenyl)-1H-imidazole]	112 to 119 °C	100%	100%	99%	100%	100%	99%	95%	0%	0%							
COc1cc(F)c(-c2c(-c3ccc(Cl)cc3)c(OC)nn2C)c(F)c1 [compound 578]				58%					0%	0%	98%	100%	74%	37%	98%	0%	
COc1cc(F)c(-c2c(-c3ccc(F)cc3)c(OC)nn2C)c(F)c1 [compound 579]				92%					0%	0%	100%	100%	93%	97%	99%	0%	
COc1ccc(-c2c(OC)nn(C)c2-c2c(F)cc(OC)cc2F)cc1 [compound 580]				88%					0%	0%	90%	100%	84%	0%	98%	0%	

— patent publication US20110045101A1, “FUNGICIDAL SUBSTITUTED AZOLES” (E.I. Du Pont De Nemours and Company, priority 2009, published 2011)
